In ChEMBL document CHEMBL1124247, “Synthesis and biological evaluation of 8-deazahomofolic acid and its tetrahydro derivative” (J Med Chem, 1988):

Experiments:
Lacticaseibacillus casei [1] = experiment: Tested for growth inhibition of Lactobacillus casei (ATCC […]); assay type: functional, organism-based
L1210 = experiment: Tested for growth inhibition of L1210 leukemia cells; assay type: functional, cell-based; conditions: Mus musculus
Lacticaseibacillus casei [2] = experiment: Tested for growth inhibition of Lactobacillus casei (MTX resistant); assay type: functional, organism-based
Enterococcus faecium [3] = experiment: Tested for growth inhibition of Streptococcus faecium (ATCC 8043); assay type: functional, organism-based
Enterococcus faecium [4] = experiment: Tested for growth inhibition of Streptococcus faecium (MTX resistant); assay type: functional, organism-based
Dihydrofolate reductase = Dihydrofolate reductase (Lactobacillus casei, UniProt P00381); experiment: Inhibitory activity against dihydrofolate reductase of Lactobacillus casei; parameters: species or system Lacticaseibacillus casei
Dihydrofolate reductase, sequence (P00381 whole entry): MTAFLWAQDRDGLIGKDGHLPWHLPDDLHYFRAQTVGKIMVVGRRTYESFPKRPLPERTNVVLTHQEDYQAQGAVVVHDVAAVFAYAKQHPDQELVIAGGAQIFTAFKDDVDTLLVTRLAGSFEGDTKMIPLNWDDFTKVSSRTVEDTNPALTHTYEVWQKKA

Thymidylate synthase [5] = biological target: T1, Thymidylate synthase (Lactobacillus casei, UniProt P00469); experiment: Inhibitory activity against thymidylate synthase of Lactobacillus casei; parameters: species or system Lacticaseibacillus casei
T1 sequence (P00469 whole entry): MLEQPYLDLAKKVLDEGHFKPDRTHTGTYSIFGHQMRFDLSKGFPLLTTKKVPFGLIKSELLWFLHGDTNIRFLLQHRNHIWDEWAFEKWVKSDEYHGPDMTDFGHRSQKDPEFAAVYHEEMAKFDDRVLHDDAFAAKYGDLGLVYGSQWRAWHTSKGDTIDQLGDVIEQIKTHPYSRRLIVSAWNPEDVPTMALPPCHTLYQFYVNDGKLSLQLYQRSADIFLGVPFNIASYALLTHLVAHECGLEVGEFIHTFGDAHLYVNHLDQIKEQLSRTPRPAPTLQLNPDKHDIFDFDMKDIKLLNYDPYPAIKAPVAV

Thymidylate synthase [6] = biological target: Thymidylate synthase (Escherichia coli, UniProt C3SWJ7); experiment: Inhibitory activity against thymidylate synthase of Escherichia coli
Thymidylate synthase (Escherichia coli, UniProt C3SWJ7), sequence (C3SWJ7 whole entry): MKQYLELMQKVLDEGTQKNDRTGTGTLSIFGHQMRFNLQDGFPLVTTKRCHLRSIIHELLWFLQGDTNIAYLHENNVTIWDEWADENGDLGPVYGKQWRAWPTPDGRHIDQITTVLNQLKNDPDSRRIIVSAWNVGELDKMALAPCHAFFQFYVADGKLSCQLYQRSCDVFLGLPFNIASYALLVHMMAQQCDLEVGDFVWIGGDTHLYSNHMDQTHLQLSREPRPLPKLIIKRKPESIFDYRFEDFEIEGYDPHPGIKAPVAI

IC50 (Thymidylate synthase [6]) [nM]	SMILES	IC50 (Lacticaseibacillus casei [1]) [nM]	IC50 (L1210) [nM]	IC50 (Lacticaseibacillus casei [2]) [nM]	IC50 (Enterococcus faecium [3]) [nM]	IC50 (Enterococcus faecium [4]) [nM]	IC50 (Dihydrofolate reductase) [nM]	IC50 (Thymidylate synthase [5]) [nM]
–	Nc1nc2c(c(=O)[nH]1)NC(CCNc1ccc(C(=O)NC(CCC(=O)O)C(=O)O)cc1)CC2 (stereo unspecified)	35	35700	> 100000	15	> 100000	230000	340000
–	Nc1nc(O)c2nc(CCNc3ccc(C(=O)NC(CCC(=O)O)C(=O)O)cc3)cnc2n1 (stereo unspecified)	220	–	–	2200	–	–	–
–	Nc1nc(O)c2nc(CNc3ccc(C(=O)NC(CCC(=O)O)C(=O)O)cc3)ccc2n1 (stereo unspecified)	1.4	1330	2040	0.3	294	12000	14000
–	Nc1nc(O)c2c(n1)CCC(CNc1ccc(C(=O)NC(CCC(=O)O)C(=O)O)cc1)N2 (stereo unspecified)	2.7	–	> 4000	1.6	1040	55000	75000
–	Nc1nc(O)c2nc(CCNc3ccc(C(=O)NC(CCC(=O)O)C(=O)O)cc3)ccc2n1 (stereo unspecified)	19	87000	330	21	1100	220000	160000
2000	Nc1nc(O)c2c(n1)NCC(CCNc1ccc(C(=O)NC(CCC(=O)O)C(=O)O)cc1)N2 (stereo unspecified)	13	–	–	1.5	–	–	–
–	CN(Cc1cnc2nc(N)nc(N)c2n1)c1ccc(C(=O)N[C@@H](CCC(=O)O)C(=O)O)cc1 [METHOTREXATE]	0.05	3.9	–	0.8	8000	–	–
